Test results: patent US7244431B2, “Allergy vaccines and their preparation” (priority 2000, dated 2007)

Legend:
[1] = tested on: birch pollen allergic patients; test: Skin prick testing of allergic patients; type: in vivo, human; settings: 100 μg/ml
Procedure: SPTs were performed on the individuals forearms as described ([…]. et al. (1997) J. Clin Invest. 99, 1673-168; Dreborg S: (1989) J. Am. Acad. DerMatol. 21, 820-821). […] In addition standardized skin prick solutions (birch pollen extract and histamine) (Allergopharma, Reinbek, Germany) were tested. Reactions were recorded 20 minutes after SPT by photography and by transferring the ballpoint pen-surrounded wheal area with a scotch tape to paper.

[2] = tested on: IgE antibodies in sera from birch pollen allergic patients; test: ELISA detection of peptide- and rBet v 1-specific IgE antibodies; type: binding, human
Procedure, shortened: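 IgE binding detected by 1:1000 alkaline-phosphatase mouse monoclonal anti-human IgE after overnight 4 °C incubation with 1:3-diluted sera. Sera came from 60 birch pollen allergic patients (25 male, 35 female, age 19–60) and a non-atopic control.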

For “MGVFNYETETTSVIPAARLFKAFIC [Peptide P1, Bet v 1-derived synthetic peptide, position aa 1-24, one cysteine added]”, which mean wheal diameter ([1]; individual 1) is on record?
The mean wheal diameter was 0 mm.

What about the mean wheal diameter ([1]; individual 2) of the same sequence?
Its mean wheal diameter is 0 mm.

What about the mean wheal diameter ([1]; individual 3) of the same sequence?
The mean wheal diameter was 0 mm.

And the mean wheal diameter ([1]; individual 4)?
Its mean wheal diameter is 0 mm.

And the mean wheal diameter ([1]; individual 5)?
Its mean wheal diameter is 0 mm.

What about the mean wheal diameter ([1]; individual 6 (allergic, without birch pollen allergy)) of the same sequence?
The mean wheal diameter was 0 mm.

And the “IgE (OD)” value ([2]; serum of NHS, non-allergic control individual)?
The value was “— (Dashes indicate reactivities below the cut-off level (OD=0.050))”.

What about the “IgE (OD)” value ([2]; serum of patient 1) of the same sequence?
Its value is “— (Dashes indicate reactivities below the cut-off level (OD=0.050))”.

What about the “IgE (OD)” value ([2]; serum of patient 2) of the same sequence?
The value was “— (Dashes indicate reactivities below the cut-off level (OD=0.050))”.

What about the “IgE (OD)” value ([2]; serum of patient 3) of the same sequence?
Its value is “— (Dashes indicate reactivities below the cut-off level (OD=0.050))”.

And the “IgE (OD)” value ([2]; serum of patient 4)?
The value was “— (Dashes indicate reactivities below the cut-off level (OD=0.050))”.

What about the “IgE (OD)” value ([2]; serum of patient 5) of the same sequence?
Its value is “— (Dashes indicate reactivities below the cut-off level (OD=0.050))”.

And the “IgE (OD)” value ([2]; serum of patient 6)?
Its value is “— (Dashes indicate reactivities below the cut-off level (OD=0.050))”.

What about the “IgE (OD)” value ([2]; serum of patient 7) of the same sequence?
Its value is “— (Dashes indicate reactivities below the cut-off level (OD=0.050))”.

What about the “IgE (OD)” value ([2]; serum of patient 8) of the same sequence?
Its value is “— (Dashes indicate reactivities below the cut-off level (OD=0.050))”.

And the “IgE (OD)” value ([2]; serum of patient 9)?
Its value is “— (Dashes indicate reactivities below the cut-off level (OD=0.050))”.

And the “IgE (OD)” value ([2]; serum of patient 10)?
Its value is “— (Dashes indicate reactivities below the cut-off level (OD=0.050))”.

What about the “IgE (OD)” value ([2]; serum of patient 11) of the same sequence?
Its value is “— (Dashes indicate reactivities below the cut-off level (OD=0.050))”.

And the “IgE (OD)” value ([2]; serum of patient 12)?
The value was “— (Dashes indicate reactivities below the cut-off level (OD=0.050))”.

What about the “IgE (OD)” value ([2]; serum of patient 13) of the same sequence?
Its value is “— (Dashes indicate reactivities below the cut-off level (OD=0.050))”.

And the “IgE (OD)” value ([2]; serum of patient 14)?
Its value is “— (Dashes indicate reactivities below the cut-off level (OD=0.050))”.

What about the “IgE (OD)” value ([2]; serum of patient 15) of the same sequence?
The value was “— (Dashes indicate reactivities below the cut-off level (OD=0.050))”.

And the “IgE (OD)” value ([2]; serum of patient 16)?
Its value is “— (Dashes indicate reactivities below the cut-off level (OD=0.050))”.

What about the “IgE (OD)” value ([2]; serum of patient 17) of the same sequence?
The value was “— (Dashes indicate reactivities below the cut-off level (OD=0.050))”.

What about the “IgE (OD)” value ([2]; serum of patient 18) of the same sequence?
Its value is “— (Dashes indicate reactivities below the cut-off level (OD=0.050))”.

What about the “IgE (OD)” value ([2]; serum of patient 19) of the same sequence?
The value was “— (Dashes indicate reactivities below the cut-off level (OD=0.050))”.

And the “IgE (OD)” value ([2]; serum of patient 20)?
The value was “— (Dashes indicate reactivities below the cut-off level (OD=0.050))”.

What about the “IgE (OD)” value ([2]; serum of patient 21) of the same sequence?
The value was “— (Dashes indicate reactivities below the cut-off level (OD=0.050))”.

What about the “IgE (OD)” value ([2]; serum of patient 22) of the same sequence?
The value was “— (Dashes indicate reactivities below the cut-off level (OD=0.050))”.

What about the “IgE (OD)” value ([2]; serum of patient 23) of the same sequence?
The value was “— (Dashes indicate reactivities below the cut-off level (OD=0.050))”.

What about the “IgE (OD)” value ([2]; serum of patient 24) of the same sequence?
Its value is “— (Dashes indicate reactivities below the cut-off level (OD=0.050))”.

And the “IgE (OD)” value ([2]; serum of patient 25)?
Its value is “— (Dashes indicate reactivities below the cut-off level (OD=0.050))”.

And the “IgE (OD)” value ([2]; serum of patient 26)?
The value was “— (Dashes indicate reactivities below the cut-off level (OD=0.050))”.

And the “IgE (OD)” value ([2]; serum of patient 27)?
The value was “— (Dashes indicate reactivities below the cut-off level (OD=0.050))”.

What about the “IgE (OD)” value ([2]; serum of patient 28) of the same sequence?
The value was “— (Dashes indicate reactivities below the cut-off level (OD=0.050))”.

And the “IgE (OD)” value ([2]; serum of patient 29)?
The value was “— (Dashes indicate reactivities below the cut-off level (OD=0.050))”.

What about the “IgE (OD)” value ([2]; serum of patient 30) of the same sequence?
The value was “— (Dashes indicate reactivities below the cut-off level (OD=0.050))”.

And the “IgE (OD)” value ([2]; serum of patient 31)?
The value was “— (Dashes indicate reactivities below the cut-off level (OD=0.050))”.

And the “IgE (OD)” value ([2]; serum of patient 32)?
The value was “— (Dashes indicate reactivities below the cut-off level (OD=0.050))”.

And the “IgE (OD)” value ([2]; serum of patient 33)?
The value was “— (Dashes indicate reactivities below the cut-off level (OD=0.050))”.

What about the “IgE (OD)” value ([2]; serum of patient 34) of the same sequence?
The value was “— (Dashes indicate reactivities below the cut-off level (OD=0.050))”.

What about the “IgE (OD)” value ([2]; serum of patient 35) of the same sequence?
Its value is “— (Dashes indicate reactivities below the cut-off level (OD=0.050))”.

And the “IgE (OD)” value ([2]; serum of patient 36)?
Its value is “— (Dashes indicate reactivities below the cut-off level (OD=0.050))”.

And the “IgE (OD)” value ([2]; serum of patient 37)?
Its value is “— (Dashes indicate reactivities below the cut-off level (OD=0.050))”.

And the “IgE (OD)” value ([2]; serum of patient 38)?
Its value is “— (Dashes indicate reactivities below the cut-off level (OD=0.050))”.

And the “IgE (OD)” value ([2]; serum of patient 39)?
Its value is “— (Dashes indicate reactivities below the cut-off level (OD=0.050))”.

What about the “IgE (OD)” value ([2]; serum of patient 40) of the same sequence?
The value was “— (Dashes indicate reactivities below the cut-off level (OD=0.050))”.

What about the “IgE (OD)” value ([2]; serum of patient 41) of the same sequence?
The value was “— (Dashes indicate reactivities below the cut-off level (OD=0.050))”.

And the “IgE (OD)” value ([2]; serum of patient 42)?
Its value is “— (Dashes indicate reactivities below the cut-off level (OD=0.050))”.

And the “IgE (OD)” value ([2]; serum of patient 43)?
Its value is “— (Dashes indicate reactivities below the cut-off level (OD=0.050))”.

What about the “IgE (OD)” value ([2]; serum of patient 44) of the same sequence?
The value was “— (Dashes indicate reactivities below the cut-off level (OD=0.050))”.

And the “IgE (OD)” value ([2]; serum of patient 45)?
Its value is “— (Dashes indicate reactivities below the cut-off level (OD=0.050))”.

What about the “IgE (OD)” value ([2]; serum of patient 46) of the same sequence?
The value was “— (Dashes indicate reactivities below the cut-off level (OD=0.050))”.

And the “IgE (OD)” value ([2]; serum of patient 47)?
Its value is “— (Dashes indicate reactivities below the cut-off level (OD=0.050))”.

What about the “IgE (OD)” value ([2]; serum of patient 48) of the same sequence?
Its value is “— (Dashes indicate reactivities below the cut-off level (OD=0.050))”.

What about the “IgE (OD)” value ([2]; serum of patient 49) of the same sequence?
Its value is “— (Dashes indicate reactivities below the cut-off level (OD=0.050))”.

What about the “IgE (OD)” value ([2]; serum of patient 50) of the same sequence?
Its value is “— (Dashes indicate reactivities below the cut-off level (OD=0.050))”.

What about the “IgE (OD)” value ([2]; serum of patient 51) of the same sequence?
The value was “— (Dashes indicate reactivities below the cut-off level (OD=0.050))”.

What about the “IgE (OD)” value ([2]; serum of patient 52) of the same sequence?
The value was “— (Dashes indicate reactivities below the cut-off level (OD=0.050))”.

And the “IgE (OD)” value ([2]; serum of patient 53)?
The value was “— (Dashes indicate reactivities below the cut-off level (OD=0.050))”.

And the “IgE (OD)” value ([2]; serum of patient 54)?
Its value is “— (Dashes indicate reactivities below the cut-off level (OD=0.050))”.

And the “IgE (OD)” value ([2]; serum of patient 55)?
The value was “— (Dashes indicate reactivities below the cut-off level (OD=0.050))”.

What about the “IgE (OD)” value ([2]; serum of patient 56) of the same sequence?
Its value is “— (Dashes indicate reactivities below the cut-off level (OD=0.050))”.

What about the “IgE (OD)” value ([2]; serum of patient 57) of the same sequence?
The value was “— (Dashes indicate reactivities below the cut-off level (OD=0.050))”.

And the “IgE (OD)” value ([2]; serum of patient 58)?
Its value is “— (Dashes indicate reactivities below the cut-off level (OD=0.050))”.

And the “IgE (OD)” value ([2]; serum of patient 59)?
Its value is “— (Dashes indicate reactivities below the cut-off level (OD=0.050))”.

What about the “IgE (OD)” value ([2]; serum of patient 60) of the same sequence?
The value was “— (Dashes indicate reactivities below the cut-off level (OD=0.050))”.
